Experiments:
[1] = test system: subjects with primary insomnia; assay: 001 Study Part B: polysomnography (LPS, WASO, SE); format: in vivo, human
From the text: For Part B, 58 otherwise healthy subjects with primary insomnia were randomized across three cohorts, and stratified by gender. Part B also included an active control (zolpidem) and matching placebo. In each cohort, there were approximately 12 subjects in the compound A/zolpidem-matched placebo group, approximately four subjects in the zolpidem/compound A-matched placebo group, and approximately four subjects in the compound A-matched placebo/zolpidem-matched placebo group. Part B dosing occurred in the evening, 30 minutes prior to the sleep period. The starting dose for Part B was 3 dose levels that determined to be safe and well tolerated in Part A. Subsequent dose levels in Part B were determined based on the PD results of the first cohort in Part B and PD and safety results from at least 3 completed higher dose cohorts in Part A. Each cohort in Part B was divided into at least two groups, with dosing of each group staggered by a minimum of 2 days.
After the initial Screening visit, eligible subjects were scheduled to return to the clinic for 2 days during the Screening Period to conduct screening/baseline PSGs. These two days occurred at least 3 days after the initial Screening visit and within a window from Day-7 to Day-6 (±2 days). The first PSG was used to screen for sleep apnea and periodic limb movements in sleep (PLMS) and serve as the first baseline PSG. The second PSG was used as the second baseline PSG. Specific PSG variables were used to determine whether subjects met PSG inclusion criteria, and the average of PSG variables from these two PSGs was used as Baseline for this PD measure. Subjects who had met PSG inclusion criteria returned to the clinic on Day-1 for additional baseline procedures and randomization. Subjects were not allowed to nap on Day 1. On the evening of Day 1, after fasting a minimum of 3 hours, study drug was administered 30 minutes prior to the subject's habitual bedtime (lights-out), as calculated from the sleep diary for the first PSG during the Screening Period. PK blood samples were collected at prespecified timepoints, and PD assessments were performed. PSG was recorded on Day 1, postdose. Subjects were administered additional PD assessments each morning on Day 1 through Day 6. These assessments included the KSS, DSST, and PVT, in order to assess daytime sleepiness, level of alertness, and ability to concentrate. The KSS and DSST were also administered 5 minutes predose and 25 minutes postdose on Day 1, just prior to lights-out. Waketime Questionnaires were administered after the PD assessments within 15 minutes of lights-on, on Day 1 to Day 6. Time and duration of naps was recorded on Day 2.
In addition, PSG was performed during the Screening Period at Days-7 and -6 (±2 days), and postdose on Day 1. An 8-hour diagnostic PSG consisting of electroencephalogram (EEG), electrooculogram (EOG), electromyogram (EMG), ECGs, leg electrodes, and measures of respiratory function (airflow, respiratory effort, and oxygen saturation) were performed starting at the subject's habitual bedtime as determined from the sleep diary for the 3 nights immediately prior to the first PSG on Day-7 (±2 days). PSG variables from this night were used to screen for sleep apnea and PLMS. On Day-6 (±2) and postdose on Day1, standard PSGs (i.e., not including leg electrodes or measures of respiratory function other than oxygen saturation) were performed. Specified PSG variables from these two PSGs conducted during the Screening Period were used to determine whether subjects met PSG inclusion criteria. The average of PSG variables from these two PSGs conducted during the Screening Period were used as baseline PSG values. The key PD parameters such as PSG LPS, TST, SE, and WASO have been obtained from all PSG recordings.

healthy adult subjects = assay: 002 Study: next-day residual sleepiness (KSS, PVT, DSST) and Waketime Questionnaire; format: in vivo, human
Protocol: All subjects were administered PD assessments, including the Karolinska Sleepiness Scale (KSS), Digit Symbol Substitution Test (DSST), and Psychomotor Vigilance Test (PVT) in order to assess acute sleepiness in the interval between dosing and bedtime, as well as next-day residual sleepiness and the level of alertness and ability to concentrate. In addition, a Waketime Questionnaire was administered daily in order to assess quality of sleep on the previous night.
PD effects were assessed by evaluating postdose and next-day functioning on the KSS, DSST, and the PVT, and by self-report of sleep quality on the Waketime Questionnaire. The KSS, DSST, and PVT were performed starting Day-1 at 15 minutes before habitual bedtime; on Days 1 to 15 within 15 minutes after habitual waketime, and at 1, 2, 4, 8, and 12 hours after habitual waketime, and on Days 1 to 14 at 15 minutes predose and 15 minutes postdose. 24-hour Holter recordings were started 30 minutes before bedtime on Day-2 and just prior to dosing on Day 14. Extractions from these recordings were used to conduct ECG analyses, including the HPQT analysis. Waketime Questionnaires were administered on Day 1 to Day 19.
The KSS, PVT, and DSST were administered on each treatment day in the evening predose and postdose to assess the acute effect of compound A on sleepiness. For these timepoints, the daily 15 minutes predose values on the KSS, DSST, and PVT served as a baseline for that day's 15 minutes postdose value (daily baseline). The KSS, PVT, and DSST were also administered throughout the daytime hours subsequent to each dosing evening to assess the effect of compound A on next-day residual sleepiness. For these timepoints, the assessments taken at Day 1, 15 minutes and 1, 2, 4, 8, and 12 hours after habitual waketime served as the baseline for the assessments taken at the corresponding times after habitual waketime on Day 2 to Day 15 (time-matched baseline). Waketime Questionnaires were administered on Day 1 through Day 19 in the morning hours. The predose value on Day 1 was used as the baseline. The difference between placebo and each dose of compound A in change from baseline at each timepoint was calculated along with 95% confidence intervals (CIs). Potential dose-response and time trend were explored as data allowed.

Cc1ncc(OC[C@@]2(c3cccc(F)c3)C[C@H]2C(=O)Nc2ccc(F)cn2)c(C)n1 [Compound A, (1R,2 S)-2-(((2,4-dimethylpyrimidin-5-yl)oxy)methyl)-2-(3-fluorophenyl)-N-(5-fluoropyridin-2-yl) cyclopropanecarboxamide]
LPS reduction relative to Baseline ([1]; single 2.5 mg evening dose): approximately 30 minutes | WASO reduction relative to Baseline ([1]; single 2.5 mg evening dose): approximately 30 minutes | LPS reduction relative to Baseline ([1]; single 10 mg evening dose): approximately 30 minutes | WASO reduction relative to Baseline ([1]; single 10 mg evening dose): approximately 30 minutes | LPS reduction relative to Baseline ([1]; single 25 mg evening dose): approximately 45 minutes | WASO reduction relative to Baseline ([1]; single 25 mg evening dose): more than 45 minutes | next day residual sleepiness as measured by KSS, PVT, DSST (healthy adult subjects; 2.5-75 mg once daily for 14 days): dose-related increases in both the magnitude and duration | next-day residual sleepiness vs placebo (KSS, PVT, DSST) (healthy adult subjects; 2.5-mg and 5-mg dose groups, any time, any treatment day): no meaningful difference from placebo | next-day residual sleepiness vs placebo (KSS) (healthy adult subjects; 10-mg dose group, within 2 hours after waketime, Day 2 through Day 4): Slight differences from placebo | increase in next-day residual sleepiness (healthy adult subjects; 25-mg dose group, within 2 hours after waketime): more consistent and slightly larger than in the 10-mg dose group | next-day residual sleepiness vs placebo, all assessments (healthy adult subjects; 50-mg and 75-mg dose groups): consistent and relatively large differences from placebo | Waketime Questionnaire: changes in nighttime sleep (healthy adult subjects; any dose group): None of the items on the Waketime Questionnaire indicated a systematic pattern of changes in nighttime sleep | measures of sleepiness vs placebo (healthy adult subjects; by 12 hours after waketime, any dose group, any day): no differences from placebo

From patent publication US11026944B2, “Compositions and methods for treating insomnia” (Eisai R&D Management Co., Ltd., priority 2014, dated 2021)
